Columns and labels:
[1] = Lipophilicity: distribution coefficient in 1:1 1-octanol/phosphate-buffered saline at pH 7.4; type: physicochemical
Protocol: (§1) The lipophilicity of [^61Cu]Cu-DOTAGA-PSMA-I&T and [^61Cu]Cu-NODAGA-PSMA-I&T was assessed by determining the distribution coefficient in a 1:1 mixture of 1-octanol–to–phosphate-buffered saline at pH 7.4, in comparison with all reference radiotracers. Inhibitory concentration of 50% (IC50) was assessed by competition binding on lymph node carcinoma of the prostate (LNCaP) using ((S)-1-carboxy-5-(4-(-^125I-iodo-benzamido)pentyl)carbamoyl)-L-glutamic acid as the reference radioligand. Cellular uptake and distribution were assessed in LNCaP cells at 5, 15, 30, 60, and 120 min after exposure to the radioligand at 37°C, either alone or in the presence of 10 µM 2-(phosphonomethyl)pentanedioic acid to distinguish between specific and nonspecific uptake.

LNCaP xenografts = assay: Biodistribution in LNCaP xenografts; type: in vivo, mice
Protocol: All animal experiments were conducted in accordance with Swiss animal welfare laws and regulations under license number 30515 granted by the Veterinary Office, Department of Health, Canton Basel-Stadt, Switzerland. Male athymic nude-Foxn1^nu/Foxn1^+ mice (Envigo), 4–6 wk old, were inoculated subcutaneously on the shoulder with 10^7 LNCaP cells, freshly suspended in a 1:1 ratio of sterile minimum essential medium with basal medium Eagle and Matrigel. The tumors were allowed to grow to a volume of approximately 200 mm^3.
The biodistribution of [^61Cu]Cu-DOTAGA-PSMA-I&T and [^61Cu]Cu-NODAGA-PSMA-I&T (100 µL/200 pmol/2–3 MBq) was compared with that of [^68Ga]Ga-DOTAGA-PSMA-I&T, [^68Ga]Ga-NODAGA-PSMA-I&T, and [^68Ga]Ga-PSMA-11 (100 µL/200 pmol/3–5 MBq), as well as [^18F]PSMA-1007 (100 µL/70 pmol/15 MBq). This comparison was conducted at 1 h after injection for all radiotracers and at 4 h after injection for the ^61Cu-labeled tracers and [^18F]PSMA-1007. The specificity of the ^61Cu-labeled tracers was assessed at 1 h after injection by blocking studies with 2-(phosphonomethyl)pentanedioic acid (100 µL/1.3 µmol) being injected 3–5 min before the injection of the radiotracer.

LNCaP cells = assay: Cellular uptake and distribution (surface-bound, internalized) in LNCaP cells; type: cell-based; conditions: 1 h, 37°C, specific uptake
Protocol: as §1
(§2) FIGURE 1. In vitro assessment in LNCaP cells after 1 h at 37°C. (A) Competition binding activity curves of ^natCu-DOTAGA-PSMA-I&T, ^natCu-NODAGA-PSMA-I&T, and ^natGa-PSMA-11 on LNCaP cells after 1 h of incubation on ice, using ((S)-1-carboxy-5-(4-(-^125I-iodo-benzamido)pentyl)carbamoyl)-L-glutamic acid ([^125I-BA]KuE) at concentration of 0.2 nM as reference radioligand. (B) Cellular uptake (surface-bound + internalized). Cell surface–bound and internalized fractions are indicated. Results represent mean ± SD of specific (total − nonspecific) uptake from minimum of 2 separate experiments, each in triplicate.

PSMA = biological target: T1, PSMA (Homo sapiens, UniProt Q04609); assay: Competition binding on LNCaP cells using [^125I-BA]KuE as reference radioligand; conditions: [^125I-BA]KuE 0.2 nM, 1 h on ice, determined with natCu/natGa complexes
T1 construct: endogenous in cells; host or cells: LNCaP cells
T1 sequence (Q04609 whole entry): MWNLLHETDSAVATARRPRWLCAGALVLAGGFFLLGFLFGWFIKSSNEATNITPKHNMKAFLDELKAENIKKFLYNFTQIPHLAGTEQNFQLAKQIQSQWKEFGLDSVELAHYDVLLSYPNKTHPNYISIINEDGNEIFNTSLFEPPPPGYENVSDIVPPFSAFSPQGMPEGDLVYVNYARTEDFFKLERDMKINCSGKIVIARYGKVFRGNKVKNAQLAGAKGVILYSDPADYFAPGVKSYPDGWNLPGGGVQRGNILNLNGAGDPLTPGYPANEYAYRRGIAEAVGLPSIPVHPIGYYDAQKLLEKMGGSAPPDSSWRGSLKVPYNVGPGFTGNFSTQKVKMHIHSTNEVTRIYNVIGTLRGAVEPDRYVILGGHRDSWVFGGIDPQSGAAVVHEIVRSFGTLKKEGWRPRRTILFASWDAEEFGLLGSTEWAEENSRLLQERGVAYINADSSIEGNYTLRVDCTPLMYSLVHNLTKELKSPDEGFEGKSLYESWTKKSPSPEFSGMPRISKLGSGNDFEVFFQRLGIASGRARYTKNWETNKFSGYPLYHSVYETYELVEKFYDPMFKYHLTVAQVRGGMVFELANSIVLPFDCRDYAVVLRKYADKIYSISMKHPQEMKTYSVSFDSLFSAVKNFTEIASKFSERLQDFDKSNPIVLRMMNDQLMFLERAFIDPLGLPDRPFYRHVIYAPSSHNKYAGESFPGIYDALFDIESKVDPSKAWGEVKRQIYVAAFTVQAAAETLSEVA
Protocol: as §1, §2

O=C(O)CC[C@H](NC(=O)N[C@@H](CCCCNC(=O)[C@H](Cc1ccc2ccccc2c1)NC(=O)c1ccc(CNC(=O)[C@H](CCC(=O)O)NC(=O)[C@H](CCC(=O)O)NC(=O)c2ccc([18F])nc2)cc1)C(=O)O)C(=O)O [[^18F]PSMA-1007, reference compound]
logDpH7.4 [1]: −3.02 ± 0.11 | Biodistribution, Adrenals (LNCaP xenografts; 1 h after injection): 7.18 ± 2.20 %IA/g | Biodistribution, Blood (LNCaP xenografts; 1 h after injection): 0.41 ± 0.11 %IA/g | Biodistribution, Femur (LNCaP xenografts; 1 h after injection): 0.94 ± 0.13 %IA/g | Biodistribution, Heart (LNCaP xenografts; 1 h after injection): 1.25 ± 0.29 %IA/g | Biodistribution, Intestine (LNCaP xenografts; 1 h after injection): 1.04 ± 0.33 %IA/g | Biodistribution, Kidneys (LNCaP xenografts; 1 h after injection): 100 ± 17 %IA/g | Biodistribution, Liver (LNCaP xenografts; 1 h after injection): 0.93 ± 0.26 %IA/g | Biodistribution, Lung (LNCaP xenografts; 1 h after injection): 2.08 ± 0.24 %IA/g | Biodistribution, Muscles (LNCaP xenografts; 1 h after injection): 0.53 ± 0.09 %IA/g | Biodistribution, Pancreas (LNCaP xenografts; 1 h after injection): 1.32 ± 0.58 %IA/g | Biodistribution, Salivary glands (LNCaP xenografts; 1 h after injection): 2.54 ± 0.72 %IA/g | Biodistribution, Spleen (LNCaP xenografts; 1 h after injection): 11.0 ± 1.1 %IA/g | Biodistribution, Stomach (LNCaP xenografts; 1 h after injection): 0.75 ± 0.15 %IA/g | Biodistribution, Tumor (tumor uptake) (LNCaP xenografts; 1 h after injection): 9.70 ± 2.57 %IA/g | Tumor-to-Adrenals ratio (LNCaP xenografts; 1 h after injection): 1.45 ± 0.55 | Tumor-to-Blood ratio (LNCaP xenografts; 1 h after injection): 25.8 ± 11.5 | Tumor-to-Intestine ratio (LNCaP xenografts; 1 h after injection): 10.3 ± 4.8 | Tumor-to-Kidneys ratio (LNCaP xenografts; 1 h after injection): 0.10 ± 0.03 | Tumor-to-Liver ratio (LNCaP xenografts; 1 h after injection): 11.3 ± 4.5 | Tumor-to-Muscles ratio (LNCaP xenografts; 1 h after injection): 19.2 ± 6.5 | Tumor-to-Salivary glands ratio (LNCaP xenografts; 1 h after injection): 4.12 ± 1.60 | Tumor-to-Spleen ratio (LNCaP xenografts; 1 h after injection): 0.89 ± 0.20 | Biodistribution, Adrenals (LNCaP xenografts; 4 h after injection): 8.03 ± 2.66 %IA/g | Biodistribution, Blood (LNCaP xenografts; 4 h after injection): 0.17 ± 0.04 %IA/g | Biodistribution, Femur (LNCaP xenografts; 4 h after injection): 0.62 ± 0.11 %IA/g | Biodistribution, Heart (LNCaP xenografts; 4 h after injection): 0.53 ± 0.23 %IA/g | Biodistribution, Intestine (LNCaP xenografts; 4 h after injection): 0.43 ± 0.22 %IA/g | Biodistribution, Kidneys (LNCaP xenografts; 4 h after injection): 132 ± 9 %IA/g | Biodistribution, Liver (LNCaP xenografts; 4 h after injection): 0.32 ± 0.16 %IA/g | Biodistribution, Lung (LNCaP xenografts; 4 h after injection): 1.61 ± 0.58 %IA/g | Biodistribution, Muscles (LNCaP xenografts; 4 h after injection): 0.27 ± 0.11 %IA/g | Biodistribution, Pancreas (LNCaP xenografts; 4 h after injection): 0.80 ± 0.32 %IA/g | Biodistribution, Salivary glands (LNCaP xenografts; 4 h after injection): 1.62 ± 0.43 %IA/g | Biodistribution, Spleen (LNCaP xenografts; 4 h after injection): 8.33 ± 2.11 %IA/g | Biodistribution, Stomach (LNCaP xenografts; 4 h after injection): 0.47 ± 0.16 %IA/g | Biodistribution, Tumor (tumor uptake) (LNCaP xenografts; 4 h after injection): 6.28 ± 2.19 %IA/g | Tumor-to-Adrenals ratio (LNCaP xenografts; 4 h after injection): 0.78 ± 0.11 | Tumor-to-Blood ratio (LNCaP xenografts; 4 h after injection): 42.7 ± 16.4 | Tumor-to-Intestine ratio (LNCaP xenografts; 4 h after injection): 12.4 ± 4.4 | Tumor-to-Kidneys ratio (LNCaP xenografts; 4 h after injection): 0.04 ± 0.01 | Tumor-to-Liver ratio (LNCaP xenografts; 4 h after injection): 18.4 ± 8.5 | Tumor-to-Muscles ratio (LNCaP xenografts; 4 h after injection): 20.1 ± 2.5 | Tumor-to-Salivary glands ratio (LNCaP xenografts; 4 h after injection): 3.63 ± 0.40 | Tumor-to-Spleen ratio (LNCaP xenografts; 4 h after injection): 0.71 ± 0.12

O=C([O-])CN1CCN(CC(=O)[O-])CCN(C(CCC(=O)N[C@H](Cc2ccc(O)c(I)c2)C(=O)N[C@H](Cc2ccccc2)C(=O)N[C@H](CCCCNC(=O)CCCCCCC(=O)NCCCC[C@H](NC(=O)N[C@@H](CCC(=O)O)C(=O)O)C(=O)O)C(=O)O)C(=O)O)CCN(CC(=O)[O-])CC1.[68Ga+3] (some centres unmarked) [[^68Ga]Ga-DOTAGA-PSMA-I&T, reference compound]
Cellular uptake (surface-bound + internalized) (LNCaP cells): 20.6% ± 2.3%

O=C([O-])CN1CCN(CC(=O)[O-])CCN(C(CCC(=O)N[C@H](Cc2ccc(O)c(I)c2)C(=O)N[C@H](Cc2ccccc2)C(=O)N[C@H](CCCCNC(=O)CCCCCCC(=O)NCCCC[C@H](NC(=O)N[C@@H](CCC(=O)O)C(=O)O)C(=O)O)C(=O)O)C(=O)[O-])CC1.[68Ga+3] (some centres unmarked) [[^68Ga]Ga-NODAGA-PSMA-I&T]
Cellular uptake (surface-bound + internalized) (LNCaP cells): 18.1% ± 2.6%

O=C([O-])CN(CCN(CC(=O)[O-])Cc1cc(CCC(=O)NCCCCCC(=O)NCCCC[C@H](NC(=O)N[C@@H](CCC(=O)O)C(=O)O)C(=O)O)ccc1[O-])Cc1cc(CCC(=O)O)ccc1[O-].[68Ga+3].[OH3+] [[^68Ga]Ga-PSMA-11, reference compound]
logDpH7.4 [1]: −3.89 ± 0.19 | Cellular uptake (surface-bound + internalized) (LNCaP cells): 25.8% ± 0.5% | Biodistribution, Adrenals (LNCaP xenografts; 1 h after injection): 19.2 ± 5.3 %IA/g | Biodistribution, Blood (LNCaP xenografts; 1 h after injection): 0.25 ± 0.07 %IA/g | Biodistribution, Femur (LNCaP xenografts; 1 h after injection): 3.69 ± 1.86 %IA/g | Biodistribution, Heart (LNCaP xenografts; 1 h after injection): 0.32 ± 0.10 %IA/g | Biodistribution, Intestine (LNCaP xenografts; 1 h after injection): 1.52 ± 0.60 %IA/g | Biodistribution, Kidneys (LNCaP xenografts; 1 h after injection): 159 ± 31 %IA/g | Biodistribution, Liver (LNCaP xenografts; 1 h after injection): 0.54 ± 0.27 %IA/g | Biodistribution, Lung (LNCaP xenografts; 1 h after injection): 1.43 ± 0.43 %IA/g | Biodistribution, Muscles (LNCaP xenografts; 1 h after injection): 0.90 ± 0.36 %IA/g | Biodistribution, Pancreas (LNCaP xenografts; 1 h after injection): 0.70 ± 0.12 %IA/g | Biodistribution, Salivary glands (LNCaP xenografts; 1 h after injection): 1.56 ± 0.31 %IA/g | Biodistribution, Spleen (LNCaP xenografts; 1 h after injection): 6.38 ± 1.37 %IA/g | Biodistribution, Stomach (LNCaP xenografts; 1 h after injection): 0.69 ± 0.11 %IA/g | Biodistribution, Tumor (tumor uptake) (LNCaP xenografts; 1 h after injection): 10.2 ± 1.5 %IA/g | Tumor-to-Adrenals ratio (LNCaP xenografts; 1 h after injection): 0.58 ± 0.26 | Tumor-to-Blood ratio (LNCaP xenografts; 1 h after injection): 45.3 ± 19.7 | Tumor-to-Intestine ratio (LNCaP xenografts; 1 h after injection): 8.66 ± 6.90 | Tumor-to-Kidneys ratio (LNCaP xenografts; 1 h after injection): 0.07 ± 0.02 | Tumor-to-Liver ratio (LNCaP xenografts; 1 h after injection): 23.5 ± 12.5 | Tumor-to-Muscles ratio (LNCaP xenografts; 1 h after injection): 13.6 ± 8.3 | Tumor-to-Salivary glands ratio (LNCaP xenografts; 1 h after injection): 6.72 ± 1.51 | Tumor-to-Spleen ratio (LNCaP xenografts; 1 h after injection): 1.69 ± 0.58

O=C([O-])CN1CCN(CC(=O)O)CCN(CC(=O)[O-])CCN(C(CCC(=O)N[C@H](Cc2ccc(O)c(I)c2)C(=O)N[C@H](Cc2ccccc2)C(=O)N[C@H](CCCCNC(=O)CCCCCCC(=O)NCCCC[C@H](NC(=O)N[C@@H](CCC(=O)O)C(=O)O)C(=O)O)C(=O)O)C(=O)O)CC1.[Cu+2] (some centres unmarked) [^natCu-DOTAGA-PSMA-I&T]
IC50 (PSMA): 11.2 ± 2.3 nM

O=C([O-])CN1CCN(CC(=O)[O-])CCN(C(CCC(=O)N[C@H](Cc2ccc(O)c(I)c2)C(=O)N[C@H](Cc2ccccc2)C(=O)N[C@H](CCCCNC(=O)CCCCCCC(=O)NCCCC[C@H](NC(=O)N[C@@H](CCC(=O)O)C(=O)O)C(=O)O)C(=O)O)C(=O)O)CC1.[Cu+2] (some centres unmarked) [^natCu-NODAGA-PSMA-I&T]
IC50 (PSMA): 9.3 ± 1.8 nM

O=C([O-])CN(CCN(CC(=O)[O-])Cc1cc(CCC(=O)NCCCCCC(=O)NCCCC[C@H](NC(=O)N[C@@H](CCC(=O)O)C(=O)O)C(=O)O)ccc1O)Cc1cc(CCC(=O)O)ccc1[O-].[Ga+3] [^natGa-PSMA-11, reference compound]
IC50 (PSMA): 2.4 ± 0.4 nM
